Laboratory results as given in patent publication US12239635B2, “Treatment of cognitive disorders using nitazoxanide (NTZ), nitazoxanide (NTZ) analogs, and metabolites thereof” (The Trustees of Columbia University in the City of New York, priority 2018, dated 2025).
One block for each compound: values may come before it.

Columns and labels:
[1] = literature (Stockis et al. and others); cited from earlier work
in vivo [2] = settings: ICR, mouse, po; for AUC(0-inf): AUC0-∞; for AUC(0-t): AUClast
Protocol: (§1) wherein Cmax indicates maximum plasma concentration observed, Tmax indicates time to Cmax, AUClast indicates the Area Under the Curve from zero to the last time point, AUC0-∞ indicates the total area under the plasma concentration time curve from zero to infinity, and T1/2 indicates terminal elimination half-life. […] Brain/Plasma ratio was calculated using the formula: (Brain AUClast)/(Plasma AUClast).

in vivo [3] = settings: Sprague Dawley, rat, po; for AUC(0-inf): AUC0-∞; for AUC(0-t): AUClast
Protocol: A pharmacokinetic experiment was performed to determine Tizoxanide (TIZ, active metabolite of Nitazoxanide, NTZ) in rat brain and plasma following oral administration to Sprague Dawley (SD) rat.
An Nitazoxanide (NTZ) pill (Alinia) solution was prepared at a concentration of 14.5 mg/mL (10.0 mg/mL as Nitazoxanide (NTZ) for oral administration (per os, PO), ad libitum, in a mixture of 0.5% methyl cellulose and 99.5% saline. The PO dosing volume was 10 mL/kg. SD rats (n=3 per time point; weighing 0.161 to 0.171 kg) were fasted and oral administration was given using a gavage needle. Blood samples were collected from jugular vein and brain tissues were sampled at 0.33, 1 and 4 hrs after oral administration. Blood samples were centrifuged immediately and a 100 ul aliquot of plasma, and the brain tissues were stored −20° C. until the analysis. The concentration of Nitazoxanide (NTZ) and Tizoxanide (TIZ) in plasma and brain were determined by HPLC/MS/MS analysis. An Agilent 1200 HPLC with Zorbax C18 column and an API4000 tandem quadrupole mass spectrometer were used. The molecular ions of Nitazoxanide (NTZ), Tizoxanide (TIZ) and an internal standard (Chlorzoxazone) were fragmented and detected by monitoring the transitions for each compound. Peak areas were integrated using Analyst software version 1.5.1. (Applied Biosystems). The quantifiable range was from 0.001 to 3 μg/ml for plasma and brain samples. Plasma or brain concentration-time profile for each rat was analyzed (WinNonlin 4.1 program) to obtain pharmacokinetic profile parameters.
as §1

[4] = active metabolite following oral administration of Nitazoxanide; cited from earlier work

SMILES: CC(=O)Oc1ccccc1C(=O)Nc1ncc([N+](=O)[O-])s1 [Nitazoxanide (NTZ), [2-[(5-nitro-1,3-thiazol-2-yl)carbamoyl]phenyl]ethanoate]
Pharmacokinetic profile in humans [1]: excellent pharmacokinetic profiles
Tolerability in humans [1]: well-tolerated
Brain/plasma ratio (in vivo [2]): 0.015
Brain/plasma ratio (in vivo [3]): 0.008

Brain/plasma ratio (in vivo [2]): 0.015
Cmax, plasma (in vivo [2]): 288.50 ± 227.73 ng/mL
Tmax, brain (in vivo [2]): 1.55 ± 2.12 h
AUC(0-inf) (in vivo [2]; brain): 9.06 ng·h/mL
AUC(0-inf) (in vivo [2]; plasma): 1000 ng·h/mL
AUC(0-t) (in vivo [2]; brain): 7.18 ± 5.62 ng·h/mL
AUC(0-t) (in vivo [2]; plasma): 485 ± 163 ng·h/mL
Cmax (in vivo [2]; Cmax, plasma): 228 ng/mL
half-life (in vivo [2]; T1/2, brain): 1.15 h
half-life (in vivo [2]; T1/2, plasma): 3.8 h
Tmax (in vivo [2]; brain): 1.78 h
Tmax (in vivo [2]; plasma): 0.67 h
Brain/plasma ratio (in vivo [3]): 0.008
Tmax, brain (in vivo [3]): 0.53 ± 0.39 h
AUC(0-inf) (in vivo [3]; brain): 62.8 ng·h/mL
AUC(0-inf) (in vivo [3]; plasma): 5420 ng·h/mL
AUC(0-t) (in vivo [3]; brain): 17.9 ± 14.6 ng·h/mL
AUC(0-t) (in vivo [3]; plasma): 2320 ± 603 ng·h/mL
half-life (in vivo [3]; T1/2, brain): 2.85 h
half-life (in vivo [3]; T1/2, plasma): 3.86 h
Tmax (in vivo [3]; brain): 0.55 h
Tmax (in vivo [3]; plasma): 0.39 h
SMILES: O=C(Nc1ncc([N+](=O)[O-])s1)c1ccccc1O [Tizoxanide (TIZ), Tizoxanide]
Pharmacokinetic profile in humans [1]: excellent pharmacokinetic profiles
Tolerability in humans [1]: well-tolerated
Protein bound [4]: 99%

SMILES: O=C(Nc1ncc([N+](=O)[O-])s1)c1ccccc1O[C@@H]1O[C@H](C(=O)O)[C@@H](O)[C@H](O)[C@H]1O [Tizoxanide glucuronide (TIZ-G), Tizoxanide glucuronide]
Pharmacokinetic profile in humans [1]: excellent pharmacokinetic profiles
Tolerability in humans [1]: well-tolerated
